Test results reported in PMC9381133 (Molecular Cancer Therapeutics, 2022).

Target: T1, CD73 (ecto-5′-nucleotidase) (Mus musculus, UniProt Q61503)
T1 sequence (Q61503 29-551): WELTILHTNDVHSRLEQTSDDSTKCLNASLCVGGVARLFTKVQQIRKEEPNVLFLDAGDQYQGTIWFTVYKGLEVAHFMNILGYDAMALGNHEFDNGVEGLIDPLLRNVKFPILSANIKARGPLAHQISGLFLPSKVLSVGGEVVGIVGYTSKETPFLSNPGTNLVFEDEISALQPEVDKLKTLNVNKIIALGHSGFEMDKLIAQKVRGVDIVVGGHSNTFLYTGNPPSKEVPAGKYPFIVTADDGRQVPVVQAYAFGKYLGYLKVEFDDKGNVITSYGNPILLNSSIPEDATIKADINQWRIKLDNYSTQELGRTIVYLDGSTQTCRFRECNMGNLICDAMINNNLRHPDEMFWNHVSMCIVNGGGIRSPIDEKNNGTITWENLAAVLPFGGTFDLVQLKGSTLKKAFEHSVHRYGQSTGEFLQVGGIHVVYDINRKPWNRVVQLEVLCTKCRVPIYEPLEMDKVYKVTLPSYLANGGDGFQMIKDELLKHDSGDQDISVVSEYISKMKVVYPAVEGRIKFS
Test: […]5-AMP hydrolysis in B16F10 tumor homogenate, LC/MS of […]5-adenosine
Assay type: biochemical

- IC50: 0.704 nM
SMILES: C[C@H](Nc1cc(Cl)nc2c1cnn2[C@@H]1O[C@H](COP(=O)(O)CP(=O)(O)O)[C@@H](O)[C@H]1O)c1ccccc1F [AB680]
